Laboratory results reported in PubChem BioAssay (NCI).
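1) Cells in 96-well plates. 2) Compound, 48 h, 5 concentrations. 3) Linear interpolation between surrounding doses. 4) Unreached endpoint = highest concentration. Here, GI50 denotes the concentration required for 50% inhibition of growth. TGI: total growth inhibition.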

Tests used:
Assay in all cases: inhibition of tumour cell growth, NCI panel, 48 h
SN12C renal = tested on: SN12C renal
CCRF-CEM leukemia = tested on: CCRF-CEM leukemia
OVCAR-4 ovarian = tested on: OVCAR-4 ovarian
NCI-H23 lung = tested on: NCI-H23 lung
NCI-H226 lung = tested on: NCI-H226 lung
SF-268 CNS = tested on: SF-268 CNS
MALME-3M melanoma = tested on: MALME-3M melanoma
IGROV1 ovarian = tested on: IGROV1 ovarian
HOP-62 NSCLC = tested on: HOP-62 NSCLC
DU-145 prostate = tested on: DU-145 prostate

| Structure (SMILES) | TGI (SN12C renal) | TGI (CCRF-CEM leukemia) | TGI (OVCAR-4 ovarian) | TGI (NCI-H23 lung) | TGI (NCI-H226 lung) | TGI (SF-268 CNS) | TGI (MALME-3M melanoma) | TGI (IGROV1 ovarian) | TGI (HOP-62 NSCLC) | GI50 (SN12C renal) | GI50 (CCRF-CEM leukemia) | GI50 (OVCAR-4 ovarian) | GI50 (NCI-H23 lung) | GI50 (SF-268 CNS) | GI50 (MALME-3M melanoma) | GI50 (IGROV1 ovarian) | GI50 (HOP-62 NSCLC) | GI50 (NCI-H226 lung) | GI50 (DU-145 prostate) | TGI (DU-145 prostate) |
| --- | --- | --- | --- | --- | --- | --- | --- | --- | --- | --- | --- | --- | --- | --- | --- | --- | --- | --- | --- | --- |
| CC(C)(C)OC(=O)N1C2CCCC23O[C@@H]1c1cc2c(cc1C3=O)OCO2 (some centres not stated) | > 100 µM | > 100 µM | > 100 µM | > 100 µM | > 100 µM | > 100 µM | > 100 µM | > 100 µM | > 100 µM | – | – | – | – | – | – | – | – | – | – | – |
| NC(=S)N/N=C1\CCCC\C1=C/c1ccccc1 | > 100 µM | > 100 µM | > 100 µM | > 100 µM | – | > 100 µM | > 100 µM | 71.5 µM | > 100 µM | – | – | – | – | – | – | – | – | – | – | – |
| CCOc1ccc(N=Cc2c3ccccc3nc3ccccc23)cc1 | > 100 µM | 24 µM | > 100 µM | > 100 µM | > 100 µM | > 100 µM | > 100 µM | > 100 µM | > 100 µM | – | – | – | – | – | – | – | – | – | – | – |
| CCCCCCCCCCCCCCCCCCC1=C(O)C(=O)C=C(OC)C1=O | > 100 µM | – | > 100 µM | > 100 µM | > 100 µM | > 100 µM | > 100 µM | > 100 µM | > 100 µM | – | – | – | – | – | – | – | – | – | – | – |
| NCCN.O=C([O-])[O-].O=C([O-])[O-].[Co+3].[K+] | > 100 µM | > 100 µM | > 100 µM | > 100 µM | – | > 100 µM | > 100 µM | > 100 µM | > 100 µM | > 100 µM | > 100 µM | > 100 µM | > 100 µM | > 100 µM | > 100 µM | > 100 µM | > 100 µM | – | – | – |
| CC(=O)[CH-]C(=O)c1ccccc1.CC(=O)[CH-]C(=O)c1ccccc1.O=S(=O)([O-])c1cc([O-])c2c([O-])cc(S(=O)(=O)[O-])cc2c1.[Na+].[Ti+4] | > 100 µM | – | > 100 µM | – | > 100 µM | > 100 µM | > 100 µM | > 100 µM | > 100 µM | > 100 µM | – | 68.6 µM | – | > 100 µM | 84.5 µM | > 100 µM | > 100 µM | 47.5 µM | – | – |
| CSc1ccc2c(cc1=O)[C@@H](NC(=O)c1cc(O)c(O)c(O)c1)CCc1cc(O)c(O)c(O)c1-2 | 34.5 µM | 18.1 µM | 22.7 µM | 39.7 µM | 35 µM | > 100 µM | 93.3 µM | – | > 100 µM | – | – | – | – | – | – | – | – | – | – | – |
| C[P+](C)(C)c1ccccc1 | > 100 µM | > 100 µM | > 100 µM | > 100 µM | > 100 µM | > 100 µM | > 100 µM | > 100 µM | > 100 µM | – | – | – | – | – | – | – | – | – | – | – |
| O=C1CC2CCN(C(=O)c3ccccc3)CC2CCN1 (configuration not stated) | > 100 µM | > 100 µM | > 100 µM | > 100 µM | > 100 µM | > 100 µM | > 100 µM | > 100 µM | > 100 µM | – | – | – | – | – | – | – | – | – | – | – |
| C=CCC1(C)CCCCC1(O)CS(=O)c1ccccc1 (configuration not stated) | > 100 µM | > 100 µM | > 100 µM | – | > 100 µM | > 100 µM | > 100 µM | > 100 µM | > 100 µM | – | – | – | – | – | – | – | – | – | – | – |
| COc1cc(/C=C2\CCC/C(=C\c3ccc(OCC4CO4)c(OC)c3)C2=O)ccc1OCC1CO1 (configuration not stated) | 8.71 µM | > 100 µM | – | 9.71 µM | – | 8.41 µM | 4.56 µM | 7.07 µM | 9.59 µM | 2.84 µM | 2.5 µM | – | 2.8 µM | 2.62 µM | 1.95 µM | 2.87 µM | 3.38 µM | – | 3.06 µM | 15.8 µM |
| C1=NC(N(Cc2ccccc2)Cc2ccccc2)N(Cc2ccccc2)N1 (configuration not stated) | 34.1 µM | > 100 µM | 36.7 µM | 54.9 µM | 33.5 µM | 47.4 µM | 25.8 µM | 33.6 µM | 32.7 µM | – | – | – | – | – | – | – | – | – | – | – |
| Nc1ccc(C2=N/C(=C\c3cccc(N)c3)C(=O)O2)cc1 | > 100 µM | > 100 µM | > 100 µM | > 100 µM | – | > 100 µM | > 100 µM | > 100 µM | – | – | – | – | – | – | – | – | – | – | – | – |
| COc1cc(C(=O)O[C@H](C(N)=O)[C@]2(C)CO2)c2cccc(C)c2c1 | 0.245 µM | 5.94 µM | > 26 µM | – | – | > 100 µM | 0.646 µM | 0.0567 µM | 5.35 µM | < 0.01 µM | – | – | < 0.0203 µM | – | 0.13 µM | < 0.01 µM | 2.23 µM | – | < 0.017 µM | 0.0928 µM |
| Cc1ccc(N2C(=O)N(c3ccc(C)cc3)C3(SC=NN3C)C2=O)cc1 (configuration not stated) | > 100 µM | > 100 µM | > 100 µM | > 100 µM | > 100 µM | > 100 µM | > 100 µM | > 100 µM | > 100 µM | – | – | – | – | – | – | – | – | – | – | – |
| CCOC(=O)C(C)(c1c(C)[nH]c2ccccc12)c1c(C)[nH]c2ccccc12 | – | 58 µM | 32 µM | 37.5 µM | 32.9 µM | – | 43 µM | 51.3 µM | 43.6 µM | – | – | – | – | – | – | – | – | – | – | – |
| CCc1nc(Cl)c(Cl)c(Cl)n1 | > 100 µM | > 100 µM | > 100 µM | > 100 µM | > 100 µM | > 100 µM | > 100 µM | > 100 µM | > 100 µM | – | – | – | – | – | – | – | – | – | – | – |
| Cc1c2c(C(N)=O)nccc2c(C)c2c1c1ccccc1n2Cc1ccccc1 | 44.8 µM | 62.6 µM | 7.47 µM | 78.8 µM | 69.6 µM | 97.5 µM | – | 42.7 µM | 19.3 µM | – | – | – | – | – | – | – | – | – | – | > 100 µM |
| O=C1c2ccccc2C(=O)N1C/C=N/NS(=O)(=O)c1ccc(Br)cc1 | > 100 µM | > 100 µM | > 100 µM | > 100 µM | > 100 µM | > 100 µM | > 100 µM | > 100 µM | > 100 µM | – | – | – | – | – | – | – | – | – | – | – |
| C[Si](C)(C)CN1C(=O)c2ccccc2C1(O)c1ccccc1 (configuration not stated) | > 100 µM | > 100 µM | > 100 µM | > 100 µM | > 100 µM | > 100 µM | > 100 µM | > 100 µM | > 100 µM | – | – | – | – | – | – | – | – | – | – | – |
| CC1CCC(C(C)(C)c2ccccc2)C(=O)C1 (configuration not stated) | > 100 µM | > 100 µM | > 100 µM | – | – | > 100 µM | > 100 µM | > 100 µM | > 100 µM | – | – | – | – | – | – | – | – | – | – | – |
| O=C1c2ccc3c4ccccc4n(-c4ccccc4)c3c2C(=O)N1c1ccc(Cl)cc1 | > 100 µM | > 100 µM | > 100 µM | 24.4 µM | > 100 µM | > 100 µM | > 100 µM | > 100 µM | > 100 µM | – | – | – | – | – | – | – | – | – | – | – |
